For 14 molecules, Ki and inhibition in vivo results are on record in ChEMBL document CHEMBL1127614, “2,6-Disubstituted aryl carboxylic acids, leaving groups "par excellence" for benzisothiazolone inhibitors of human leukocyte elastase” (J Med Chem, 1994).

The term Ki denotes a measure of affinity in units of concentration, obtained from inhibition or displacement. A low value points to tighter binding. A word on the inhibition in vivo: it is the relative decrease from the control value, in per cent. The low end stands for a weak effect, the high end for a strong effect.

For the first experiment, the target named is T1, Neutrophil elastase (Homo sapiens, UniProt P08246).
T1 sequence (P08246 whole entry): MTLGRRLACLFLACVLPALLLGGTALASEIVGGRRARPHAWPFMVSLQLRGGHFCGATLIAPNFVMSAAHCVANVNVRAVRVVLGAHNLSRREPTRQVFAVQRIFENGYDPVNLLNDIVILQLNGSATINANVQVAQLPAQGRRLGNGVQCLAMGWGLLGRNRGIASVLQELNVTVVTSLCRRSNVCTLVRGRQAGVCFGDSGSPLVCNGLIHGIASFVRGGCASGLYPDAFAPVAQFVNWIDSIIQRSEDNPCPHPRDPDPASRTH
The experiment in a line: In vitro inhibition constant of human leukocyte elastase.
Molecule `CCC(C)c1cccc2c1C(=O)N(COC(=O)c1c(Cl)cccc1Cl)S2(=O)=O` (stereo not given) yielded an inhibition constant Ki of 0.06 nM.

The molecule `Cc1cccc2c1C(=O)N(COC(=O)c1c(Cl)cccc1Cl)S2(=O)=O` came in with a Ki of 2 nM.

On to `O=C(OCN1C(=O)c2ccccc2S1(=O)=O)c1c(C(F)(F)F)cccc1C(F)(F)F`, for which the affinity corresponds to a Ki of 37 nM.

In the case of `O=C(OCN1C(=O)c2ccccc2S1(=O)=O)c1c(Br)cccc1Br`, the Ki was 8.5 nM.

On to `COc1cccc(OC)c1C(=O)OCN1C(=O)c2ccccc2S1(=O)=O`, for which the affinity corresponds to a Ki of 8 nM.

With `CC(=O)Nc1cccc(Cl)c1C(=O)OCN1C(=O)c2ccccc2S1(=O)=O`, the Ki worked out at 18 nM.

In turn, `CCc1cccc2c1C(=O)N(COC(=O)c1c(Cl)cccc1Cl)S2(=O)=O` had a Ki of 0.17 nM.

`O=C(OCN1C(=O)c2c(-c3ccccc3)cccc2S1(=O)=O)c1c(Cl)cccc1Cl`: the affinity corresponds to a Ki of 1 nM.

`CC(=O)OCN1C(=O)c2ccccc2S1(=O)=O`: the affinity corresponds to a Ki of 102 nM.

`CC(C)(C)c1cccc2c1C(=O)N(COC(=O)c1c(Cl)cccc1Cl)S2(=O)=O` gave a Ki of 26 nM.

As for `O=C(OCN1C(=O)c2ccccc2S1(=O)=O)c1c(F)cccc1F`, the Ki was 8 nM.

Molecule `O=C(OCN1C(=O)c2ccccc2S1(=O)=O)c1ccccc1` gave a Ki of 31 nM.

Regarding `CC(C)c1cccc2c1C(=O)N(COC(=O)c1c(Cl)cccc1Cl)S2(=O)=O`, the Ki is 0.03 nM.

`Cc1cccc(C)c1C(=O)OCN1C(=O)c2ccccc2S1(=O)=O` registered a Ki of 4 nM.

For another experiment, the system named is Cricetinae gen. sp. The experiment in a line: In Vivo evaluation of the Compound for the percentage inhibition of HLE at 60 mg/kg dose by intravenous administration. It is filed as functional, Cricetulus griseus.
Turning to `CC(C)c1cccc2c1C(=O)N(COC(=O)c1c(Cl)cccc1Cl)S2(=O)=O`, 60 mg/kg produced 47% inhibition in vivo.
